From publication PMC8329300, “X-ray crystallography reveals molecular recognition mechanism for sugar binding in a melibiose transporter MelB” (Communications Biology, 2021)

How the values were obtained:
[1] = test system: E. coli DW2 strain (melB−, lacZ−Y−); experiment: [3H]Melibiose transport time course with DW2 intact cells; assay type: cell-based, Escherichia coli; parameters: unit not given here; conditions: 0.4 mM [3H]melibiose
Method: (§1) Fig. 1 Functional characterizations. a [^3H] Melibiose transport time course with intact cells. E. coli DW2 strain (melB^−, lacZ^−Y^−) expressed with the WT, D59C, or D59A MelBSt mutants were subjected to [^3H]melibiose active transport assay at 0.4 mM and 10 mCi/mmol in the presence of 20 mM or 100 mM NaCl or LiCl by a fast filtration method. Inset, melibiose fermentation assay. Transformants with DW2 strain were plated on MacConkey agar plates containing 30 mM melibiose as the sole carbohydrate source and pH sensor neutral red, and incubated at 37 °C for 16–18 h before imaging. Number of tests = 3, from different batch of cells or duplicate measurements from same batch of sample. b Ligand binding by Trp→dansyl galactoside (D^2G) FRET assay. Purified proteins at 1 μM concentration in 20 mM Tris-HCl, pH 7.5, 100 mM CholCl, 10% glycerol, and 0.03% UDM were subjected to steady-state fluorescence measurements as described in Methods. On the time-trace, 1.8 μL of 1 mM D^2G at 10 μM was added into 180 μL of protein solutions at 1-min point, followed by supplying 10 μL of 5 mM DDMB or 5 mM α-NPG to displace the bound D^2G. For testing Na^+ or Li^+ binding, they are added into the solution before displacement with the second sugar. The structure of DDMB or α-NPG is shown in a chair form, and the carbon positions are labeled. Glycosidic bonds are indicated by arrows. Both are α-galactosides containing a substituent at the anomeric carbon-1. The data were from duplicate measurements.
The overexpression of MelBSt was carried out in the E. coli DW2 strain (melA^+, melB^−, and lacZ^−Y^−) from a constitutive expression plasmid pK95ΔAH/MelBSt/CHis10[9],[28],[33]. The D59C or D59A mutant with Cys or Ala at the position 59, respectively, was constructed previously[9] or in this study by QuikChange Site-Directed Mutagenesis kit and confirmed by DNA sequencing analysis. E. coli DW2 cells containing a given plasmid were grown in Luria-Bertani (LB) broth (5 g yeast extract and 10 g tryptone per liter with 171 mM NaCl) with 100 mg/L of ampicillin in a 37 °C shaker. The overnight cultures were diluted by 5% with LB broth supplemented with 0.5% glycerol and 100 mg/L of ampicillin, and constitutive overexpression was obtained by shaking at 30 °C for another 5 h.
E. coli DW2 cells expressing MelBSt were washed with 100 mM KPi, pH 7.5, to remove Na^+ contamination as described previously. The cell pellets were resuspended with the assay buffer (100 mM KPi, pH 7.5, 10 mM MgSO4) and adjusted to A420 of 10 (∼0.7 mg protein/ml). Using a fast filtration, transport time course at 0.4 mM melibiose (at specific activity of 10 mCi/mmol) was carried out in the absence or presence of NaCl or LiCl at 20 mM or 100 mM, respectively, and intracellular melibiose was determined as described previously.

[2] = target: T1, D59C MelBSt (Salmonella typhimurium, UniProt P30878, D59C); experiment: Melibiose fermentation on MacConkey agar (DW2 transformants); assay type: cell-based; conditions: 30 mM melibiose, 37 °C
T1 construct: Cys scanning mutagenesis for the full-length MelBSt; His10 (C); made in house; host or cells: E. coli DW2
Method: as §1, with “Both are α-galactosides containing a substituent at the anomeric carbon-1. The data were from duplicate measurements.” left out

[3] = target: T2, D59A MelBSt (Salmonella typhimurium, UniProt P30878, D59A); experiment: Trp→dansyl galactoside (D2G) FRET time trace (D59A); assay type: binding; conditions: no Na+ or Li+ stimulation
T2 construct: Cys scanning mutagenesis for the full-length MelBSt; His10 (C); made in house; host or cells: E. coli DW2
Method: Fig. 1 Functional characterizations. a [^3H] Melibiose transport time course with intact cells. E. coli DW2 strain (melB^−, lacZ^−Y^−) expressed with the WT, D59C, or D59A MelBSt mutants were subjected to [^3H]melibiose active transport assay at 0.4 mM and 10 mCi/mmol in the presence of 20 mM or 100 mM NaCl or LiCl by a fast filtration method. Inset, melibiose fermentation assay. Transformants with DW2 strain were plated on MacConkey agar plates containing 30 mM melibiose as the sole carbohydrate source and pH sensor neutral red, and incubated at 37 °C for 16–18 h before imaging. Number of tests = 3, from different batch of cells or duplicate measurements from same batch of sample. b Ligand binding by Trp→dansyl galactoside (D^2G) FRET assay. Purified proteins at 1 μM concentration in 20 mM Tris-HCl, pH 7.5, 100 mM CholCl, 10% glycerol, and 0.03% UDM were subjected to steady-state fluorescence measurements as described in Methods. […]
Steady-state fluorescence measurements were performed with an AMINCO-Bowman series 2 spectrometer with purified MelBSt at 1 μM in 20 mM Tris-HCl, pH 7.5, 100 mM CholCl, 10% glycerol, 0.03% UDM. Using an excitation wavelength at 290 nm, the emission intensity was recorded at 490 nm. […]

T1 sequence (P30878 whole entry D59C): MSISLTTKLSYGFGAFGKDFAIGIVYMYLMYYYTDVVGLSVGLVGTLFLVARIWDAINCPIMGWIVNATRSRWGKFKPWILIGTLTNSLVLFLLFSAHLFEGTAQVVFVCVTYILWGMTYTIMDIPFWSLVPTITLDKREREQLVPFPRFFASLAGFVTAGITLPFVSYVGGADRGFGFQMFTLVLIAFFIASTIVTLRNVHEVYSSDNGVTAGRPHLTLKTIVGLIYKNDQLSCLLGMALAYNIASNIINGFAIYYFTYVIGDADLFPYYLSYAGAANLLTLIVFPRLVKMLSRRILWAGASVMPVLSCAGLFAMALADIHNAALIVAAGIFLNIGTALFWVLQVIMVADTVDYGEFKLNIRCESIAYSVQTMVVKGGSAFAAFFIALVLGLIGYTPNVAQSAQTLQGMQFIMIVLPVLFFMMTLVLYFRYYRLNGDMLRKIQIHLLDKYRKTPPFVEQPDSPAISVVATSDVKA
T2 sequence (P30878 whole entry D59A): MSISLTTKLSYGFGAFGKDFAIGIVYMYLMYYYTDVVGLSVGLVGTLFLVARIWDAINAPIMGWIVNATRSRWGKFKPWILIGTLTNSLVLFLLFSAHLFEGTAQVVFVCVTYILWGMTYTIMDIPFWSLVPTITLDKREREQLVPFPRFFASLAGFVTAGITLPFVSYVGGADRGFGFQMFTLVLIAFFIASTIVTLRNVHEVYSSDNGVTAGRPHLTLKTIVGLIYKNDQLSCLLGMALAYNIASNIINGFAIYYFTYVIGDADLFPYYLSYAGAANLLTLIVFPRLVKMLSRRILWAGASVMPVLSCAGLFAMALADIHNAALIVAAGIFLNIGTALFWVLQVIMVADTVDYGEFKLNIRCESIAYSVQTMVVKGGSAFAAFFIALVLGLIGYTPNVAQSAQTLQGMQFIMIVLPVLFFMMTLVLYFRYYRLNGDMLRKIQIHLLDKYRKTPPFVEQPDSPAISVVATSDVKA

OC[C@H]1O[C@H](OCC2O[C@@H](O)[C@H](O)[C@@H](O)[C@@H]2O)[C@H](O)[C@@H](O)[C@H]1O (stereo partly drawn) [Melibiose]
Melibiose transport ([1]; H+, Time 0.08333): 5.1051
Melibiose transport ([1]; H+, Time 0.16667): 0.0051
Melibiose transport ([1]; H+, Time 0.5): 5.3907
Melibiose transport ([1]; H+, Time 1): 1.8156
Melibiose transport ([1]; H+, Time 2): 6.1659
Melibiose transport ([1]; H+, Time 5): 3.5343
Melibiose transport ([1]; H+, Time 10): 0.765
Melibiose transport ([1]; H+, Time 30): 0.4743
Melibiose transport ([1]; Li+, 20 mM, Time 0.08333): 4.9419
Melibiose transport ([1]; Li+, 20 mM, Time 0.16667): 5.658
Melibiose transport ([1]; Li+, 20 mM, Time 0.5): 3.542
Melibiose transport ([1]; Li+, 20 mM, Time 1): 2.349
Melibiose transport ([1]; Li+, 20 mM, Time 2): 6.918
Melibiose transport ([1]; Li+, 20 mM, Time 5): 4.664
Melibiose transport ([1]; Li+, 20 mM, Time 10): 5.3448
Melibiose transport ([1]; Li+, 20 mM, Time 30): 4.1259
Melibiose transport ([1]; Li+, 100 mM, Time 0.08333): 3.0914
Melibiose transport ([1]; Li+, 100 mM, Time 0.16667): 1.7168
Melibiose transport ([1]; Li+, 100 mM, Time 0.5): 6.0378
Melibiose transport ([1]; Li+, 100 mM, Time 1): 1.9198
Melibiose transport ([1]; Li+, 100 mM, Time 2): 3.77
Melibiose transport ([1]; Li+, 100 mM, Time 5): 5.9682
Melibiose transport ([1]; Li+, 100 mM, Time 10): 7.743
Melibiose transport ([1]; Li+, 100 mM, Time 30): -0.2436
Melibiose transport ([1]; Na+, 20 mM, Time 0.08333): 5.1051
Melibiose transport ([1]; Na+, 20 mM, Time 0.16667): 0.0051
Melibiose transport ([1]; Na+, 20 mM, Time 0.5): 5.3907
Melibiose transport ([1]; Na+, 20 mM, Time 1): 1.8156
Melibiose transport ([1]; Na+, 20 mM, Time 2): 6.1659
Melibiose transport ([1]; Na+, 20 mM, Time 5): 3.5343
Melibiose transport ([1]; Na+, 20 mM, Time 10): 0.765
Melibiose transport ([1]; Na+, 20 mM, Time 30): 0.4743
Melibiose transport ([1]; Na+, 100 mM, Time 0.08333): 0.1281
Melibiose transport ([1]; Na+, 100 mM, Time 0.16667): 1.6531
Melibiose transport ([1]; Na+, 100 mM, Time 0.5): 2.6962
Melibiose transport ([1]; Na+, 100 mM, Time 1): 0.671
Melibiose transport ([1]; Na+, 100 mM, Time 2): -3.3611
Melibiose transport ([1]; Na+, 100 mM, Time 5): 0.2867
Melibiose transport ([1]; Na+, 100 mM, Time 10): 0.0793
Melibiose transport ([1]; Na+, 100 mM, Time 30): -2.3912
melibiose fermentation (colony colour) [2]: normal melibiose fermentation with red colonies

O=[N+]([O-])c1ccc(OC2OC(CO)C(O)C(O)C2O)cc1 [α-NPG, 4-nitrophenyl-α-D-galactopyranoside]
ligand binding by Trp→D2G FRET [3]: binds
